# Key:
# ABUTH (Velvetleaf) = experiment: Postemergence herbicidal evaluation; format: in vivo, Abutilon theophrasti; conditions: postemergence
# In short: (§1)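 Rate range approx. 0.0156–0.500 kg/ha. Foliar application at 40 psi to ~2-week seedlings; surfactant 0.5% TWEEN 20 in 50/50 acetone/water. Evaluation 4–5 wk post-treatment by 0–9 visual injury score, means of replicate tests.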
# AMBEL (Ragweed, Common) [1] = experiment: Postemergence herbicidal evaluation; format: in vivo, Ambrosia artemisifolia; conditions: postemergence
# In short: as §1
# [2] = tested on: CHEAL (Lambsquarters, Common); experiment: Postemergence herbicidal evaluation; format: in vivo, Chenopodium album; conditions: postemergence
# In short: as §1
# ECHCG (Barnyardgrass) = experiment: Postemergence herbicidal evaluation; format: in vivo, Echinochloa crus-galli; conditions: postemergence
# In short: as §1
# [3] = tested on: GLXMAW (Soybean, Williams); experiment: Postemergence herbicidal evaluation; format: in vivo, Glycine max, (L.) Merr. cv Williams; conditions: postemergence
# In short: as §1
# ORYSAT (Rice, Tebonnet) = experiment: Postemergence herbicidal evaluation; format: in vivo, Oryza sativa, (L.) Tebonnet; conditions: postemergence
# In short: as §1
# ZEAMX (Corn, Field) = experiment: Postemergence herbicidal evaluation; format: in vivo, Zea mays; conditions: postemergence
# In short: as §1
# AMBEL (Ragweed, Common) [4] = experiment: Preemergence herbicidal evaluation; format: in vivo, Ambrosia artemisifolia; conditions: rated 4-5 weeks after treatment
# In short: (§2)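 Each species is sown separately in potting soil over roughly an inch of soil before any emergence. The soil surface then receives an aqueous acetone spray delivering about 0.0156 to 0.500 kg/ha of compound. After four to five weeks, injury is scored from 0 to 9 relative to a control.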
# CASOB (Sicklepod) = experiment: Preemergence herbicidal evaluation; format: in vivo, Cassia obtusifolia; conditions: rated 4-5 weeks after treatment
# In short: as §2
# [5] = tested on: CHEAL (Lambsquarters, Common); experiment: Preemergence herbicidal evaluation; format: in vivo, Chenopodium album; conditions: rated 4-5 weeks after treatment
# In short: as §2
# GALAP (Galium) = experiment: Preemergence herbicidal evaluation; format: in vivo, Galium aparine; conditions: rated 4-5 weeks after treatment
# In short: as §2
# CYPSE (Flatsedge) [6] = experiment: Preemergence weed control under flooded paddy conditions; format: in vivo, Cyperus serotinus; conditions: rated 3-4 weeks after treatment
# In short: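 First, seeds or propagules go into the top 0.5 cm of silt loam; next, water is held 1.5 to 3 cm over the soil; then compound (50/50 acetone/water) is pipetted into it at about 0.0313 to 0.500 kg/ha; finally plants are rated visually 0-9 after three to four weeks.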
# CYPIR (Rice Flatsedge) = experiment: Postemergence weed control under flooded paddy conditions; format: in vivo, Cyperus iria; conditions: postemergence weeds
# In short: (§3)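 Herbicidal effect is judged by eye on a 0–9 scale versus control, 3–4 weeks after dosing. Dosing is into flood water kept 1.5–3 cm over the soil, at about 0.0313–0.500 kg/ha in aqueous/acetone 50/50 v/v, on 3–5 cm weeds and 1.5–2.5-leaf rice seedlings.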
# CYPSE (Flatsedge) [7] = experiment: as above; format: in vivo, Cyperus serotinus; conditions: postemergence weeds
# In short: as §3
# [8] = rate 0.0313 kg/ha, 3-4 weeks after treatment
# [9] = rate 0.0625 kg/ha, 3-4 weeks after treatment
# [10] = rate 0.1250 kg/ha, 3-4 weeks after treatment
# [11] = rate 0.2500 kg/ha, 3-4 weeks after treatment
# [12] = Rate 0.0313 kg/ha, rated 3 to 4 weeks after treatment
# [13] = Rate 0.0625 kg/ha, rated 3 to 4 weeks after treatment
# [14] = Rate 0.2500 kg/ha, rated 3 to 4 weeks after treatment
smiles,measurement,setting,value
CCC1SC(=Nc2cc(-n3c(=O)cc(C(F)(F)F)n(C)c3=O)c(F)cc2Cl)N(C)C1=O (stereo not shown) [Compound 10],ABUTH herbicidal rating,ABUTH (Velvetleaf); rate 0.0156 kg/ha,9.0
same,ABUTH herbicidal rating,ABUTH (Velvetleaf); rate 0.0313 kg/ha,6.5
same,ABUTH herbicidal rating,ABUTH (Velvetleaf); rate 0.0625 kg/ha,7.0
same,ABUTH herbicidal rating,ABUTH (Velvetleaf); rate 0.1250 kg/ha,9.0
same,AMBEL herbicidal rating,"AMBEL (Ragweed, Common) [1]; rate 0.0156 kg/ha",0.5
same,AMBEL herbicidal rating,"AMBEL (Ragweed, Common) [1]; rate 0.0313 kg/ha",1.0
same,AMBEL herbicidal rating,"AMBEL (Ragweed, Common) [1]; rate 0.0625 kg/ha",2.0
same,AMBEL herbicidal rating,"AMBEL (Ragweed, Common) [1]; rate 0.1250 kg/ha",4.5
same,CHEAL herbicidal rating,[2]; rate 0.0156 kg/ha,7.0
same,CHEAL herbicidal rating,[2]; rate 0.0313 kg/ha,7.0
same,CHEAL herbicidal rating,[2]; rate 0.0625 kg/ha,9.0
same,CHEAL herbicidal rating,[2]; rate 0.1250 kg/ha,9.0
same,ECHCG herbicidal rating,ECHCG (Barnyardgrass); rate 0.0156 kg/ha,0.0
same,ECHCG herbicidal rating,ECHCG (Barnyardgrass); rate 0.0313 kg/ha,0.0
same,ECHCG herbicidal rating,ECHCG (Barnyardgrass); rate 0.0625 kg/ha,0.0
same,ECHCG herbicidal rating,ECHCG (Barnyardgrass); rate 0.1250 kg/ha,1.0
same,GLXMAW herbicidal rating,[3]; rate 0.0156 kg/ha,4.0
same,GLXMAW herbicidal rating,[3]; rate 0.0313 kg/ha,4.5
same,GLXMAW herbicidal rating,[3]; rate 0.0625 kg/ha,5.3
same,GLXMAW herbicidal rating,[3]; rate 0.1250 kg/ha,5.8
same,ORYSAT herbicidal rating,"ORYSAT (Rice, Tebonnet); rate 0.0156 kg/ha",1.8
same,ORYSAT herbicidal rating,"ORYSAT (Rice, Tebonnet); rate 0.0313 kg/ha",2.5
same,ORYSAT herbicidal rating,"ORYSAT (Rice, Tebonnet); rate 0.0625 kg/ha",2.5
same,ORYSAT herbicidal rating,"ORYSAT (Rice, Tebonnet); rate 0.1250 kg/ha",3.0
same,ZEAMX herbicidal rating,"ZEAMX (Corn, Field); rate 0.0156 kg/ha",4.3
same,ZEAMX herbicidal rating,"ZEAMX (Corn, Field); rate 0.0313 kg/ha",5.3
same,ZEAMX herbicidal rating,"ZEAMX (Corn, Field); rate 0.0625 kg/ha",5.3
same,ZEAMX herbicidal rating,"ZEAMX (Corn, Field); rate 0.1250 kg/ha",5.3
same,AMBEL preemergence herbicidal rating,"AMBEL (Ragweed, Common) [4]; rate 0.0156 kg/ha",0.3
same,AMBEL preemergence herbicidal rating,"AMBEL (Ragweed, Common) [4]; rate 0.0313 kg/ha",0.3
same,AMBEL preemergence herbicidal rating,"AMBEL (Ragweed, Common) [4]; rate 0.0625 kg/ha",3.3
same,AMBEL preemergence herbicidal rating,"AMBEL (Ragweed, Common) [4]; rate 0.1250 kg/ha",4.7
same,AMBEL preemergence herbicidal rating,"AMBEL (Ragweed, Common) [4]; rate 0.2500 kg/ha",6.3
same,CASOB preemergence herbicidal rating,CASOB (Sicklepod); rate 0.0156 kg/ha,0.0
same,CASOB preemergence herbicidal rating,CASOB (Sicklepod); rate 0.0313 kg/ha,0.7
same,CASOB preemergence herbicidal rating,CASOB (Sicklepod); rate 0.0625 kg/ha,0.7
same,CASOB preemergence herbicidal rating,CASOB (Sicklepod); rate 0.1250 kg/ha,1.3
same,CASOB preemergence herbicidal rating,CASOB (Sicklepod); rate 0.2500 kg/ha,3.3
same,CHEAL preemergence herbicidal rating,[5]; rate 0.0156 kg/ha,9.0
same,CHEAL preemergence herbicidal rating,[5]; rate 0.0313 kg/ha,9.0
same,CHEAL preemergence herbicidal rating,[5]; rate 0.0625 kg/ha,9.0
same,CHEAL preemergence herbicidal rating,[5]; rate 0.1250 kg/ha,9.0
same,CHEAL preemergence herbicidal rating,[5]; rate 0.2500 kg/ha,9.0
same,GALAP preemergence herbicidal rating,GALAP (Galium); rate 0.0156 kg/ha,0.5
same,GALAP preemergence herbicidal rating,GALAP (Galium); rate 0.0313 kg/ha,2.0
same,GALAP preemergence herbicidal rating,GALAP (Galium); rate 0.0625 kg/ha,4.5
same,GALAP preemergence herbicidal rating,GALAP (Galium); rate 0.1250 kg/ha,9.0
same,GALAP preemergence herbicidal rating,GALAP (Galium); rate 0.2500 kg/ha,9.0
same,Herbicidal rating CYPSE,CYPSE (Flatsedge) [6]; 0.0313 kg/ha,0.0
same,Herbicidal rating CYPSE,CYPSE (Flatsedge) [6]; 0.0625 kg/ha,0.0
same,Herbicidal rating CYPSE,CYPSE (Flatsedge) [6]; 0.1250 kg/ha,0.0
same,Herbicidal rating CYPSE,CYPSE (Flatsedge) [6]; 0.2500 kg/ha,0.0
same,Herbicidal rating CYPIR,CYPIR (Rice Flatsedge); [8],0.0
same,Herbicidal rating CYPIR,CYPIR (Rice Flatsedge); [9],0.0
same,Herbicidal rating CYPIR,CYPIR (Rice Flatsedge); [10],2.0
same,Herbicidal rating CYPIR,CYPIR (Rice Flatsedge); [11],4.0
same,Herbicidal rating CYPSE,CYPSE (Flatsedge) [7]; [8],0.0
same,Herbicidal rating CYPSE,CYPSE (Flatsedge) [7]; [9],0.0
same,Herbicidal rating CYPSE,CYPSE (Flatsedge) [7]; [10],0.0
same,Herbicidal rating CYPSE,CYPSE (Flatsedge) [7]; [11],0.0
"Cn1c(C(F)(F)F)cc(=O)n(-c2cc(N=C3SCC(=O)N3CC(=O)OCC#N)c(Cl)cc2F)c1=O [Compound 109, 2-{{2-Chloro-5-[3,6-dihydro-3-methyl-2,6-dioxo-4-(trifluoromethyl)-1(2H)-pyrimidinyl]-4-fluorophenyl}imino}-4-oxo-3-thiazolidineacetic acid, ester with glycolonitrile]",herbicidal rating ABUTH,ABUTH (Velvetleaf); rate 0.0158 kg/ha,9.0
same,herbicidal rating ABUTH,ABUTH (Velvetleaf); rate 0.0315 kg/ha,9.0
same,herbicidal rating ABUTH,ABUTH (Velvetleaf); rate 0.0630 kg/ha,9.0
same,herbicidal rating AMBEL,"AMBEL (Ragweed, Common) [1]; rate 0.0158 kg/ha",9.0
same,herbicidal rating AMBEL,"AMBEL (Ragweed, Common) [1]; rate 0.0315 kg/ha",9.0
same,herbicidal rating AMBEL,"AMBEL (Ragweed, Common) [1]; rate 0.0630 kg/ha",9.0
same,herbicidal rating CHEAL,[2]; rate 0.0158 kg/ha,9.0
same,herbicidal rating CHEAL,[2]; rate 0.0315 kg/ha,9.0
same,herbicidal rating CHEAL,[2]; rate 0.0630 kg/ha,9.0
same,herbicidal rating ECHCG,ECHCG (Barnyardgrass); rate 0.0158 kg/ha,0.0
same,herbicidal rating ECHCG,ECHCG (Barnyardgrass); rate 0.0315 kg/ha,3.0
same,herbicidal rating ECHCG,ECHCG (Barnyardgrass); rate 0.0630 kg/ha,3.0
same,herbicidal rating GLXMAW,[3]; rate 0.0158 kg/ha,7.0
same,herbicidal rating GLXMAW,[3]; rate 0.0315 kg/ha,8.0
same,herbicidal rating GLXMAW,[3]; rate 0.0630 kg/ha,8.0
same,herbicidal rating ORYSAT,"ORYSAT (Rice, Tebonnet); rate 0.0158 kg/ha",3.0
same,herbicidal rating ORYSAT,"ORYSAT (Rice, Tebonnet); rate 0.0315 kg/ha",4.5
same,herbicidal rating ORYSAT,"ORYSAT (Rice, Tebonnet); rate 0.0630 kg/ha",5.0
same,herbicidal rating ZEAMX,"ZEAMX (Corn, Field); rate 0.0158 kg/ha",6.5
same,herbicidal rating ZEAMX,"ZEAMX (Corn, Field); rate 0.0315 kg/ha",6.5
same,herbicidal rating ZEAMX,"ZEAMX (Corn, Field); rate 0.0630 kg/ha",7.0
same,Preemergence herbicidal rating AMBEL,"AMBEL (Ragweed, Common) [4]; rate 0.0156 kg/ha",3.0
same,Preemergence herbicidal rating AMBEL,"AMBEL (Ragweed, Common) [4]; rate 0.0313 kg/ha",3.0
same,Preemergence herbicidal rating AMBEL,"AMBEL (Ragweed, Common) [4]; rate 0.0625 kg/ha",8.0
same,Preemergence herbicidal rating AMBEL,"AMBEL (Ragweed, Common) [4]; rate 0.1250 kg/ha",9.0
same,Preemergence herbicidal rating AMBEL,"AMBEL (Ragweed, Common) [4]; rate 0.2500 kg/ha",9.0
same,Preemergence herbicidal rating AMBEL,"AMBEL (Ragweed, Common) [4]; rate 0.5000 kg/ha",9.0
same,Preemergence herbicidal rating CASOB,CASOB (Sicklepod); rate 0.0156 kg/ha,6.5
same,Preemergence herbicidal rating CASOB,CASOB (Sicklepod); rate 0.0313 kg/ha,4.0
same,Preemergence herbicidal rating CASOB,CASOB (Sicklepod); rate 0.0625 kg/ha,5.5
same,Preemergence herbicidal rating CASOB,CASOB (Sicklepod); rate 0.1250 kg/ha,6.5
same,Preemergence herbicidal rating CASOB,CASOB (Sicklepod); rate 0.2500 kg/ha,9.0
same,Preemergence herbicidal rating CASOB,CASOB (Sicklepod); rate 0.5000 kg/ha,9.0
same,Preemergence herbicidal rating CHEAL,[5]; rate 0.0156 kg/ha,9.0
same,Preemergence herbicidal rating CHEAL,[5]; rate 0.0313 kg/ha,9.0
same,Preemergence herbicidal rating CHEAL,[5]; rate 0.0625 kg/ha,9.0
same,Preemergence herbicidal rating CHEAL,[5]; rate 0.1250 kg/ha,9.0
same,Preemergence herbicidal rating CHEAL,[5]; rate 0.2500 kg/ha,9.0
same,Preemergence herbicidal rating CHEAL,[5]; rate 0.5000 kg/ha,9.0
same,Preemergence herbicidal rating GALAP,GALAP (Galium); rate 0.0156 kg/ha,3.0
same,Preemergence herbicidal rating GALAP,GALAP (Galium); rate 0.0313 kg/ha,3.0
same,Preemergence herbicidal rating GALAP,GALAP (Galium); rate 0.0625 kg/ha,3.0
same,Preemergence herbicidal rating GALAP,GALAP (Galium); rate 0.1250 kg/ha,4.0
same,Preemergence herbicidal rating GALAP,GALAP (Galium); rate 0.2500 kg/ha,4.0
same,CYPSE herbicidal effect rating,CYPSE (Flatsedge) [6]; 0.0313 kg/ha,4.5
same,CYPSE herbicidal effect rating,CYPSE (Flatsedge) [6]; 0.0625 kg/ha,5.5
same,CYPSE herbicidal effect rating,CYPSE (Flatsedge) [6]; 0.1250 kg/ha,9.0
same,CYPSE herbicidal effect rating,CYPSE (Flatsedge) [6]; 0.2500 kg/ha,6.5
same,Herbicidal rating CYPIR,CYPIR (Rice Flatsedge); [12],0.0
same,Herbicidal rating CYPIR,CYPIR (Rice Flatsedge); [13],2.0
same,Herbicidal rating CYPIR,"CYPIR (Rice Flatsedge); Rate 0.1250 kg/ha, rated 3 to 4 weeks after treatment",4.0
same,Herbicidal rating CYPIR,CYPIR (Rice Flatsedge); [14],7.0
same,Herbicidal rating CYPSE,CYPSE (Flatsedge) [7]; [12],0.0
same,Herbicidal rating CYPSE,CYPSE (Flatsedge) [7]; [13],0.0
same,Herbicidal rating CYPSE,CYPSE (Flatsedge) [7]; [14],7.0
